Reference: patent US12569170B2, “Paramagnetic sodium NMR macrocyclic-based biosensors, and associated methods” (Yale University, priority 2021, dated 2026)
“Also recorded” adds a separate entry of the source.

Assays:
[1] = Bulk magnetic susceptibility (BMS) contribution to chemical shift in phantoms; assay type: physicochemical; details: phantoms
From the text: Upon translation of the present in vitro results to in vivo situations, certain confounding factors must be addressed. In the interstitial space, there are additional cations such as calcium (Ca^2+), magnesium (Mg^2+) and K^+ which will also bind to anionic contrast agents like TmDOTP^5−. However, physiologically their concentrations are low compared to Na^+. […] Additionally, there is a contribution to the chemical shift from bulk magnetic susceptibility (BMS) changes brought about by TmDOTP^5− in addition to the hyperfine shifts induced by interactions with Na^+. Experiments were performed on different DOTP^8− salts in phantoms parallel and perpendicular to the main magnetic field B0, and also spherical phantoms in which there was no BMS contribution. Only a small portion (˜2%) of the total chemical shift for TmDOTP^5− was due to BMS arising due to anisotropy of the paramagnetic susceptibility, and the remainder was the hyperfine shift.

U87-bearing rat brain = assay: In vivo ^23Na-MRSI line broadening in glioma models
From the text: FIGS. 10C-10F illustrates images according to certain embodiments of the disclosure. […] However, the ^23Na linewidth analysis by TmDOTP^5− is confounded by its high ^23Na shiftability. This peak separation in vivo overestimates the full-width at half-maximum (FWHM) calculations and exaggerates the measured ^23Na linewidths.
Slice 1 is most superficial, and slice 3 is the deepest. The tumor outline is depicted in white in all columns.
This establishes GdDOTP^5−-induced ^23Na linewidth broadening as a potential surrogate marker for the altered Na^+ biodistribution within tumors. Thus, in brain tumor models, TmDOTP^5− with ^23Na-NMR can separate Na^+ in intracellular, blood, and interstitial pools, while GdDOTP^5− can distinguish Na^+ within intracellular and extracellular (i.e., blood and interstitial) pools.
Because the majority of the present studies looked at ^23Na chemical shift, the line broadening capabilities of these paramagnetic agents were also interrogated. […] This is due to the high magnetic moment of Gd^3+ which contributes to some degree of anisotropy to the paramagnetic susceptibility. […] Crucially, this family of paramagnetic agents has allowed to insightful probing of the tumor microenvironment and drawing of significant conclusions about tumor aggressiveness based on spectroscopic analysis.

[2] = Comparison of ^23Na shiftability and broadening potential of DOTP agents; assay type: physicochemical
[3] = Concentration effects of Dotarem and Gadavist on ^23Na spectra, concentric tubes phantom; assay type: physicochemical; details: 20 mM, 10 mM, 5 mM in outer compartment, tubes parallel to the magnetic field
Description: Spectra are shown for 20 mM, 10 mM, and 5 mM, where 0 ppm corresponds to the natural, unshifted ^23Na resonance of the inner compartment to which no agent was added.

U87 tumors = assay: Sorafenib treatment of U87 GBM models monitored by ^1H-MRI and ^23Na-MRSI; assay type: in vivo, rat; details: for tumor growth: U87, 0.1 g/kg body weight daily oral gavage from day 9, imaged 6 days after, vs DMSO control
Description: FIG. 9 depicts spatial distributions of compartmentalized ^23Na signals (Na^+b, Na^+e, Na^+i) as well as transendothelial (ΔNa^+end) and transmembrane (ΔNa^+mem) gradients in a pair of U87 tumors, one of which was treated with sorafenib, an anti-angiogenic tyrosine kinase inhibitor that targets vascular endothelial growth factor receptor (VEGFR) and platelet-derived growth factor receptor (PDGFR). Sorafenib dosage was 0.1 g/kg body weight, dissolved in dimethylsulfoxide (DMSO) for the treated animal, whereas the untreated control received an equivalent dose of pure DMSO. Daily treatment began on day 9 post-tumor-inoculation, and imaging was performed an additional 6 days after.
Having established the utility of ^23Na-MRSI in vivo with TmDOTP^5−, additional applications of Na^+ imaging were explored, such as monitoring therapeutic efficacy or using other agents to probe different spectroscopic characteristics. A separate cohort of U87 GBM models were treated with sorafenib, an anti-angiogenic tyrosine kinase inhibitor, with some animals kept as controls. Sorafenib treatment (0.1 g/kg body weight) began on day 9 following tumor inoculation and was dissolved in dimethylsulfoxide (DMSO) to be delivered via oral gavage. […] Therefore, ^23Na-MRSI with TmDOTP^5− has potential to effectively image the efficacy of cancer drugs.

Molecule: O=P([O-])([O-])CN1CCN(CP(=O)([O-])[O-])CCN(CP(=O)([O-])[O-])CCN(CP(=O)([O-])[O-])CC1.[Gd+3] [GdDOTP^5−]
- BMS contribution to chemical shift [1]: dominated by BMS effect
- ^23Na line broadening in tumor versus normal tissue (U87-bearing rat brain; glioma models, after agent infusion): most prominent within in the tumor; also recorded: considerable linewidth broadening within gliomas; also recorded: larger within the tumor as well compared to healthy tissue
- correlation of tumoral line broadening with increases in ΔNa^+end and decreases in ΔNa^+mem (U87-bearing rat brain; same rat, gradients from TmDOTP^5− shifts): correlated well
- broadening potential (sensitivity of linewidth to agent concentration), words [2]: high broadening potentials; also recorded: comparable broadening potential as TmDOTP^5−
- shiftability (sensitivity of ^23Na chemical shift to agent concentration), words [2]: without inducing ^23Na shift differences between compartments; also recorded: smaller shiftability

Molecule: O=C([O-])CN1CCN(CC(=O)[O-])CCN([C@H](CO)[C@H](O)CO)CCN(CC(=O)[O-])CC1.[Gd+3] [Gadavist, Gd^3+2,2′,2″-(10-((2R,3S)-1,3,4-trihydroxybutan-2-yl)-1,4,7,10-tetraazacyclododecane-1,4,7-triyl)triacetate]
- ^23Na shiftability [3]: shiftability stronger than the other Gd^3+-based agents with macrocyclic chelates

Molecule: Gd^3+2-[4,7,10-tris(carboxymethyl)-1,4,7,10-tetrazacyclododec-1-yl]acetate [Dotarem]
- ^23Na shiftability [3]: shiftability stronger than the other Gd^3+-based agents with macrocyclic chelates

Molecule: CNC(=O)c1cc(Oc2ccc(NC(=O)Nc3ccc(Cl)c(C(F)(F)F)c3)cc2)ccn1 [sorafenib]
- tumor growth (U87 tumors): slow tumor growth compared to untreated animals
- tumor growth (U87 tumors; listed as Sorafenib): retarded the growth rate of the tumor
- region of alterations in Na^+ distribution (elevated Na b and ΔNa^+end, decreased Na^+e and ΔNa^+mem) (U87 tumors; U87, treated vs untreated tumor, ^23Na-MRSI with TmDOTP^5−): confined to a smaller region for the treated tumor
